Results from article PMC9448371, “Synthesis and biological activity evaluation of 3-(hetero) arylideneindolin-2-ones as potential c-Src inhibitors” (Journal of Enzyme Inhibition and Medicinal Chemistry, 2022).
Read-outs that look alike come from different tables or passages of the source. Values belong to the molecule of their own block, whether it stands above or below them.

Assays:
c-Src = biological target: T1, c-Src (Homo sapiens, UniProt P12931); test: c-Src kinase inhibition assay (ADP-Glo Kinase Assay); format: biochemical; conditions: for IC50: 100 μM ATP, read-out: ID50 (the source's name); for Ki: calculated from ID50 assuming fully ATP-competitive inhibition
T1 construct: His6 (N); purchased Merck-Millipore 14–326
Protocol: To avoid peptide adsorption to the plastic surface, protein low-binding tubes were used. ADP-Glo Kinase Assay (Promega) was then used to detect kinase activity accordingly with manufacturer’s instruction with minor modifications. In details, reactions were transferred to white 384 well-plates and stopped by adding 10 µL of ADP-Glo Reagent (Promega) for 50 min at rt. 20 μL of Detection Reagent (Promega) was then added for 30 min and the reaction read using GloMax Discover microplate reader (Promega). Data were plotted using GraphPad Prism 5.0. […] Compounds tested were assumed to act as fully ATP-competitive inhibitors. Therefore, Ki values were calculated accordingly to Equation (2).

[1] = system: human MCF7 breast cancer cell line; test: Cytotoxicity, growth inhibition MTS assay; format: cell-based; conditions: Homo sapiens, MCF7, 72 h exposure, mean ± SD, triplicate, read-out: MCF-7 (IC50)
Protocol: Cytotoxicity experiments were carried out using the human MCF7 breast cancer cell line (ATCC HTB-22). […] Compound potency was determined by a growth inhibition assay (CellTiter 96® Aqueous One Solution Cell Proliferation Assay MTS, Promega). 24 h after seeding in a 96-well plate, cells were exposed to the compounds (concentration range 1–100 µM) and 72 h later, 20 µL of 3–(4,5-dimethylthiazol-2-yl)-5–(3-carboxymethoxyphenyl)-2–(4-sulfophenyl)-2H-tetrazolium salt (MTS) was added to each well. […] Experiments were performed in triplicate.

[2] = 10 µM compound, Table 3, tested as E/Z mixtures
[3] = 100 µM compound, Table 3, tested as E/Z mixtures, read-out: % Inhibition 100 µM
[4] = 100 μM compound, in-house collection screen, read-out: % Inhibition Src (100 μM)
[5] = 100 µM compound, Table 2, read-out: % Inhibition 100 µM
[6] = 100 µM compound, Table 3, tested as E/Z mixtures, 100 µM

T1 sequence (P12931 whole entry): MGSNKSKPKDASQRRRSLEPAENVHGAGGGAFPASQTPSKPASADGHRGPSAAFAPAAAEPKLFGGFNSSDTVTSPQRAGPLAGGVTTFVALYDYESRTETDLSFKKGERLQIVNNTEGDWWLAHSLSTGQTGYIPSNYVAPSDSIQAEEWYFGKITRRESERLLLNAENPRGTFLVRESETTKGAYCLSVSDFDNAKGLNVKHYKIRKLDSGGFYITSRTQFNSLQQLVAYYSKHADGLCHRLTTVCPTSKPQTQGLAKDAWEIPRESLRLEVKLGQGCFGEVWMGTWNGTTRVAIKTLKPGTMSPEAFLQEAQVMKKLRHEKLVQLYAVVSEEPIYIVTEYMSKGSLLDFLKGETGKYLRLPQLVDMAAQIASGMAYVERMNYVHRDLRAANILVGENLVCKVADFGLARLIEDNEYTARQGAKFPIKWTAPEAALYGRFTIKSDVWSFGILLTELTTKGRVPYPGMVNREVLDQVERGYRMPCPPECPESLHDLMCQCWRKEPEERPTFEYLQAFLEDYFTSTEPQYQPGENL

Structure (SMILES): O=C1/C(=C\c2ccc(-c3ccccc3)cc2)c2ccccc2N1O [Compound 7]
inhibition at 100 µM (c-Src; [4]): 77.3%

Structure (SMILES): COc1cc2c(cc1OC)C(=Cc1ccc(-c3ccccc3)cc1)C(=O)N2 [Compound 30, 3-([1,1′-biphenyl]-4-ylmethylene)-5,6-dimethoxyindolin-2-one]
inhibition at 10 µM (c-Src; 10 µM compound, Table 2): 9.39 ± 19.2%
inhibition at 100 µM (c-Src; [5]): 42 ± 8.91%
melting point: 231 to 232 °C

Structure (SMILES): O=C1C(=Cc2cccc(Oc3ccccc3)c2)c2ccccc2N1O [Compound 22, 1-hydroxy-3–(3-phenoxybenzylidene)indolin-2-one]
inhibition at 10 µM (c-Src; 10 µM compound, Table 2): 32.1 ± 3.53%
inhibition at 100 µM (c-Src; [5]): 64.6 ± 3.8%

Structure (SMILES): COc1cc2c(cc1OC)C(c1ccc(OC(C)=O)cc1)CC(=O)N2 (centres unmarked) [Compound 12]
inhibition at 100 µM (c-Src; [4]): 40%

Structure (SMILES): CN(C)c1nsc2c1C(=O)c1ccccc1C2=O [Compound 10]
% Inhibition Src (100 μM) (c-Src; 100 μM compound, in-house collection screen, 100 µM): 43%
% Inhibition Src (100 μM) (c-Src; 100 μM compound, in-house collection screen, listed as C00004, 100 µM): 43.5%

Structure (SMILES): O=C(Nc1ccccc1)Nc1ccc(/C=C2\C(=O)N(O)c3ccccc32)cc1 [Compound 8]
inhibition at 100 µM (c-Src; [4]): 83.2%
IC50 (c-Src; Table 1): 12.5 µM

Structure (SMILES): NC(=O)n1ccc2ccc(N3CCCC3)nc21 [Compound 4]
inhibition at 100 µM (c-Src; [4]): 4%

Structure (SMILES): NC(=O)c1cc2cccc(-c3ccccc3)c2[nH]1 [Compound 3]
inhibition at 100 µM (c-Src; [4]): 34.8%

Structure (SMILES): CCCN1CC2=C(CC(C)(C)CC2=O)N(c2ccc(C(N)=O)cc2)C1 [Compound 20]
inhibition at 100 µM (c-Src; [4]): 7.7%

Structure (SMILES): O=C1c2cc(=O)c3cc(O)ccc3n2C2CCCN12 (centres unmarked) [Compound 18]
inhibition at 100 µM (c-Src; [4]): 15.5%

Structure (SMILES): O=C1Nc2cc(Cl)ccc2/C1=C/c1cc(Br)c(O)c(Br)c1 [Compound 26]
inhibition at 10 µM (c-Src; 10 µM compound, Table 2): 67%
% Inhibition 10 µM (c-Src; 10 µM compound, Table 2, listed as C00026, 10 µM): 67.03 ± 0.10%
% Inhibition 100 µM (c-Src; 100 µM compound, Table 2, listed as C00026, 100 µM): 94.70 ± 0.30%
inhibition at 100 µM (c-Src; [5]): 95%
IC50 (c-Src; Table 2): 5.63 µM
Ki (c-Src; Table 2): 3.8 µM

Structure (SMILES): NC(=O)Nc1ccn([C@@H]2O[C@H](CO)CC2(F)F)c(=O)n1 [Compound 6]
inhibition at 100 µM (c-Src; [4]): 10.3%

Structure (SMILES): COc1cc(OC)c(/C=C2/C(=O)Nc3ccccc32)c(OC)c1 [Compound 25]
inhibition at 10 µM (c-Src; 10 µM compound, Table 2): 23.1 ± 5.55%
inhibition at 100 µM (c-Src; [5]): 35.8 ± 3.69%

Structure (SMILES): O=C1/C(=C/c2ccc(-c3ccccc3)cc2)CCN1O [Compound 24]
inhibition at 10 µM (c-Src; 10 µM compound, Table 2): 34.2 ± 0.6%
inhibition at 100 µM (c-Src; [5]): 87.5 ± 7.41%

Structure (SMILES): CC(=O)c1cccc(-c2nc3n(n2)CC(c2ccccc2)=NN3)c1 [Compound 13]
inhibition at 100 µM (c-Src; [4]): 90%
IC50 (c-Src; Table 1): 50 µM

Structure (SMILES): NC(=O)Nc1ccn([C@H]2C[C@H](O)[C@@H](CO)O2)c(=O)n1 [Compound 5]
inhibition at 100 µM (c-Src; [4]): 1.8%

Structure (SMILES): O=C1Nc2cc(Cl)ccc2C1=Cc1ccc(OCc2ccccc2)cc1 [Compound 37, 3–(4-(benzyloxy)benzylidene)-6-chloroindolin-2-one]
inhibition at 10 µM (c-Src; [2]): 16.9 ± 13.9%
inhibition at 100 µM (c-Src; [3]): 84.27 ± 0.82%
melting point: 239 to 240 °C (dec.)

Structure (SMILES): NC(=O)n1ccc2ccc(-c3ccc(F)cc3)nc21 [Compound 1]
% Inhibition Src (100 μM) (c-Src; 100 μM compound, in-house collection screen, listed as C00001, 100 µM): 58.1%
inhibition at 100 µM (c-Src; [4]): ~58%

Structure (SMILES): O=C1Nc2cc(Cl)ccc2C1=Cc1ccc(O)cc1 [Compound 35, 6-chloro-3–(4-hydroxybenzylidene)indolin-2-one]
inhibition at 10 µM (c-Src; [2]): 37.9 ± 0.35%
inhibition at 100 µM (c-Src; [3]): 86.9 ± 2.5%
IC50 (c-Src; Table 3): > 10 µM
melting point: 330 to 331 °C (dec.)

Structure (SMILES): COC(=O)c1ccc(COc2ccc(C=C3C(=O)Nc4cc(Cl)ccc43)cc2)cc1 [Compound 44, Methyl-4-((4-((6-chloro-2-oxoindolin-3-ylidene)methyl)phenoxy)methyl)benzoate]
inhibition at 10 µM (c-Src; [2]): 41 ± 10.3%
% Inhibition 100 µM (c-Src; [6]): good activity
inhibition at 100 µM (c-Src; [3]): 92.1 ± 3.84%
melting point: 201 to 202 °C

Structure (SMILES): O=C1Nc2cc(Cl)ccc2C1=Cc1cccc(Oc2ccccc2)c1 [Compound 38, 6-chloro-3–(3-phenoxybenzylidene)indolin-2-one]
inhibition at 10 µM (c-Src; [2]): 31.5 ± 3.16%
inhibition at 100 µM (c-Src; [3]): 53.6 ± 12.9%
melting point: 188 to 189 °C

Structure (SMILES): Cc1nc(Nc2ncc(C(=O)Nc3c(C)cccc3Cl)s2)cc(N2CCN(CCO)CC2)n1 [Dasatinib, reference compound]
IC50 [1]: 27 ± 1 µM

Structure (SMILES): O=C1Nc2cc(Cl)ccc2C1=Cc1ccc(OCC2CC2)cc1 [Compound 45, 6-Chloro-3–(4-(cyclopropylmethoxy)benzylidene)indolin-2-one]
inhibition at 10 µM (c-Src; [2]): 14.4 ± 2.09%
% Inhibition 100 µM (c-Src; [6]): almost inactive
inhibition at 100 µM (c-Src; [3]): 34.4 ± 13.3%
melting point: 231 to 232 °C

Structure (SMILES): COc1cc2c(cc1OC)C(=Cc1cc(Br)c(O)c(Br)c1)C(=O)N2 [Compound 29, 3–(3,5-dibromo-4-hydroxybenzylidene)-5,6-dimethoxyindolin-2-one]
inhibition at 10 µM (c-Src; 10 µM compound, Table 2): 39.8 ± 3.16%
inhibition at 100 µM (c-Src; [5]): 78.6 ± 1.32%

Structure (SMILES): COc1ccc(-c2nc3n(n2)CC(c2ccccc2)=NN3)cc1 [Compound 14]
% Inhibition Src (100 μM) (c-Src; 100 μM compound, in-house collection screen): did not affect the enzyme activity

Second part, the molecule after the results:

inhibition at 10 µM (c-Src; [2]): 35.7 ± 9.66%
inhibition at 100 µM (c-Src; [3]): 89 ± 1.35%
IC50 (c-Src; Table 3): > 10 µM
melting point: 310 °C (dec.)
Structure (SMILES): N#Cc1ccc(C=C2C(=O)Nc3cc(Cl)ccc32)cc1 [Compound 32, 4-((6-chloro-2-oxoindolin-3-ylidene)methyl)benzonitrile]

inhibition at 100 µM (c-Src; [4]): 12.8%
Structure (SMILES): NC(=O)c1noc2c1CCCC2O (centres unmarked) [Compound 19]

inhibition at 10 µM (c-Src; [2]): 4.15 ± 1.28%
% Inhibition 100 µM (c-Src; [6]): very low activity
inhibition at 100 µM (c-Src; [3]): 47.2 ± 9.33%
melting point: 271 to 272 °C (dec.)
Structure (SMILES): O=C1Nc2cc(Cl)ccc2C1=Cc1ccc(C(=O)O)cc1 [Compound 36, 4-((6-chloro-2-oxoindolin-3-ylidene)methyl)benzoic acid]

inhibition at 10 µM (c-Src; [2]): 63.4 ± 1.06%
% Inhibition 100 µM (c-Src; 100 µM compound, Table 3, tested as E/Z mixtures, listed as C00042, 100 µM): 93.88 ± 0.58%
inhibition at 100 µM (c-Src; [3]): 94%
IC50 (c-Src; Table 3): 5.31 µM
Ki (c-Src; Table 3): 3.58 µM
Structure (SMILES): O=C1Nc2cc(Cl)ccc2C1=Cc1ccc(OCc2ccc(C(=O)O)cc2)cc1 [Compound 47, 4-((4-((6-chloro-2-oxoindolin-3-ylidene)methyl)phenoxy)methyl)benzoic acid]

inhibition at 10 µM (c-Src; 10 µM compound, Table 2): 25.3 ± 9.71%
inhibition at 100 µM (c-Src; [5]): 45.6 ± 7.85%
melting point: 257 to 258 °C
Structure (SMILES): O=C1Nc2ccccc2C1=Cc1ccc(-c2ccccc2)s1 [Compound 27, 3-((5-phenylthiophen-2-yl)methylene)indolin-2-one]

inhibition at 10 µM (c-Src; [2]): 0%
% Inhibition 100 µM (c-Src; 100 µM compound, Table 3, tested as E/Z mixtures, listed as C00041, 100 µM): 70.56 ± 4.80%
inhibition at 100 µM (c-Src; [3]): 70%
melting point: 197 °C (dec.)
Structure (SMILES): O=C(O)COc1ccc(C=C2C(=O)Nc3cc(Cl)ccc32)cc1 [Compound 46, 2–(4-((6-Chloro-2-oxoindolin-3-ylidene)methyl)phenoxy)acetic acid]

inhibition at 10 µM (c-Src; [2]): 12.8 ± 1.32%
inhibition at 100 µM (c-Src; [3]): 87.7 ± 3.04%
melting point: 233 to 234 °C
Structure (SMILES): O=C1Nc2cc(Cl)ccc2C1=Cc1ccc(-c2ccccc2)s1 [Compound 48, 6-chloro-3-((5-phenylthiophen-2-yl)methylene)indolin-2-one]

inhibition at 100 µM (c-Src; [4]): 2.2%
Structure (SMILES): Nc1nsc2c1C(=O)c1ccccc1C2=O [Compound 11]

inhibition at 10 µM (c-Src; 10 µM compound, Table 2): 22.8 ± 2.94%
inhibition at 100 µM (c-Src; [5]): 57.4 ± 6.31%
Structure (SMILES): O=C1/C(=C\C=C\c2ccc(-c3ccccc3)cc2)c2ccccc2N1O [Compound 23]

inhibition at 100 µM (c-Src; [4]): 28.6%
Structure (SMILES): NC(=O)n1ccc2ccc(-c3ccccc3F)nc21 [Compound 2]

inhibition at 100 µM (c-Src; [4]): 0.6%
Structure (SMILES): Cc1ccc(C2=CCNC(=O)C3C2c2ccccc2N3C)cc1 (centres unmarked) [Compound 16]

inhibition at 100 µM (c-Src; [4]): 84%
Structure (SMILES): O=C(Nc1ccccc1)Nc1ccc(/C=C2\C(=O)Nc3ccccc32)cc1 [Compound 9]
